Key:
[1] = biological target: T1, human iNOS (Homo sapiens, UniProt P35228); assay: Inhibition of isolated human iNOS; assay type: biochemical; conditions: purified human iNOS, haemoglobin absorption assay
T1 construct: made in house
Description: 1. Inhibition of Isolated Human iNOS
The inhibition of purified human iNOS may be determined using a preparation of human iNOS as described in the chapter “Expression if Human Nitric Oxide Synthase Isozymes” by Charles et al in Methods in Enzymology, 1996 Volume 268, 449-460. Activity may be monitored using quantitative absorption changes of haemoglobin as described by R. G. Knowles and J. Dawson in “A Microtitreplate Assay of Human NOS Isoforms” in Methods in Molecular Biology, 1998, Volume 100, 237-242, Nitric Oxide Protocols, Ed M. A. Titheradge, Humana Press, Totowa N.J.

[2] = biological target: T2, iNOS (Rattus norvegicus, UniProt Q06518); assay: Inhibition of iNOS in situ in rat aortic rings (LPS-induced, endothelium-denuded, ring tension); assay type: cell-based
T2 construct: endothelium-denuded rings were exposed to LPS; from tissue; host or cells: rat thoracic aorta rings, endothelium-denuded, LPS-treated
T2 sequence (Q06518 whole entry): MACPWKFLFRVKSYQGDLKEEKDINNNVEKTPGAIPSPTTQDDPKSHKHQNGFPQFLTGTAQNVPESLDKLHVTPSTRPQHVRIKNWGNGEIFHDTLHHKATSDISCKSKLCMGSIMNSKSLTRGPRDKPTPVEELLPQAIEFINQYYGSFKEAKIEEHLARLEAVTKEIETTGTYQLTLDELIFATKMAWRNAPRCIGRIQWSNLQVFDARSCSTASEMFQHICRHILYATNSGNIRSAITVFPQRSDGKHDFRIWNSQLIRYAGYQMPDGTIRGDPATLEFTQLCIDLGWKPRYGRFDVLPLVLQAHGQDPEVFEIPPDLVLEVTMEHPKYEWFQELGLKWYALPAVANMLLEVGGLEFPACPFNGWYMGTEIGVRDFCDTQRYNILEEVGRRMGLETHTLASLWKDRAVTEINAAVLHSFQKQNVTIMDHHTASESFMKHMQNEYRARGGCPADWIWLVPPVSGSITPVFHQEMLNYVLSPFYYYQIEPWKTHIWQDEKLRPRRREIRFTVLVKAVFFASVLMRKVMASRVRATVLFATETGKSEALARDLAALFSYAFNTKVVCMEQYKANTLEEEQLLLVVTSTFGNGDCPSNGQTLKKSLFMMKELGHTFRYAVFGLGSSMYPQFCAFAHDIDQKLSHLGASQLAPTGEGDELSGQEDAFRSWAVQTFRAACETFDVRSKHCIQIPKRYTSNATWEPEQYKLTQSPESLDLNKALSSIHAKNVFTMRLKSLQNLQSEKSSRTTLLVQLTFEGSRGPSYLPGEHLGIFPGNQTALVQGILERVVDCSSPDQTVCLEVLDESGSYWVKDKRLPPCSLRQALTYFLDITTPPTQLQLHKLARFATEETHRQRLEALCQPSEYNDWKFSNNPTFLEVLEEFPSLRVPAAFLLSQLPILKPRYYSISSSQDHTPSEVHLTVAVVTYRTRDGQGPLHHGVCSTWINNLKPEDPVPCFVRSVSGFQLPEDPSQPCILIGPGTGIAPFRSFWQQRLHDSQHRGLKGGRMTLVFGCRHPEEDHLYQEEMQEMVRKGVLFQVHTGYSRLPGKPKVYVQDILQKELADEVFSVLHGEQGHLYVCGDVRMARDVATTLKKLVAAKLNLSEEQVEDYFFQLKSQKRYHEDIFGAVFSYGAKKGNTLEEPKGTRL
Description: (§1) 2. Inhibition of eNOS and INOS in Rat Aortic Rings
(§2) The inhibition of eNOS and iNOS in situ in rat aortic rings was assessed by measuring the increases in ring tension caused by NO synthase inhibition. For studies of basal tone (reflecting eNOS), rings of thoracic aorta with intact endothelium were prepared as described previously (Rees et at. (1989) Br. J. Pharmol. 96, 418-424) and cumulative concentration curves obtained for the inhibitors in the presence of a threshold concentration of phenylephrine (ED10≈10 nM). For studies of induced smooth muscle tone (reflecting iNOS), endothelium-denuded rings were exposed to LPS (0.1 μg/ml from S. typhosa) in the presence of phenylephrine at approximately ED90 for 6 h as described previously (Rees et al. (1990) Biochem. Biophys. Res. Commun. 173, 541-547). During this time a progressive loss of tone occurred because of iNOS induction. Cumulative concentration curves were then obtained for the inhibitors.

[3] = biological target: T3, eNOS (Rattus norvegicus, UniProt Q62600); assay: Inhibition of eNOS in situ in rat aortic rings (basal tone, intact endothelium, ring tension); assay type: cell-based; conditions: rat aortic rings with intact endothelium, threshold phenylephrine
T3 construct: from tissue; host or cells: rat thoracic aorta rings with intact endothelium
T3 sequence (Q62600 2-1202): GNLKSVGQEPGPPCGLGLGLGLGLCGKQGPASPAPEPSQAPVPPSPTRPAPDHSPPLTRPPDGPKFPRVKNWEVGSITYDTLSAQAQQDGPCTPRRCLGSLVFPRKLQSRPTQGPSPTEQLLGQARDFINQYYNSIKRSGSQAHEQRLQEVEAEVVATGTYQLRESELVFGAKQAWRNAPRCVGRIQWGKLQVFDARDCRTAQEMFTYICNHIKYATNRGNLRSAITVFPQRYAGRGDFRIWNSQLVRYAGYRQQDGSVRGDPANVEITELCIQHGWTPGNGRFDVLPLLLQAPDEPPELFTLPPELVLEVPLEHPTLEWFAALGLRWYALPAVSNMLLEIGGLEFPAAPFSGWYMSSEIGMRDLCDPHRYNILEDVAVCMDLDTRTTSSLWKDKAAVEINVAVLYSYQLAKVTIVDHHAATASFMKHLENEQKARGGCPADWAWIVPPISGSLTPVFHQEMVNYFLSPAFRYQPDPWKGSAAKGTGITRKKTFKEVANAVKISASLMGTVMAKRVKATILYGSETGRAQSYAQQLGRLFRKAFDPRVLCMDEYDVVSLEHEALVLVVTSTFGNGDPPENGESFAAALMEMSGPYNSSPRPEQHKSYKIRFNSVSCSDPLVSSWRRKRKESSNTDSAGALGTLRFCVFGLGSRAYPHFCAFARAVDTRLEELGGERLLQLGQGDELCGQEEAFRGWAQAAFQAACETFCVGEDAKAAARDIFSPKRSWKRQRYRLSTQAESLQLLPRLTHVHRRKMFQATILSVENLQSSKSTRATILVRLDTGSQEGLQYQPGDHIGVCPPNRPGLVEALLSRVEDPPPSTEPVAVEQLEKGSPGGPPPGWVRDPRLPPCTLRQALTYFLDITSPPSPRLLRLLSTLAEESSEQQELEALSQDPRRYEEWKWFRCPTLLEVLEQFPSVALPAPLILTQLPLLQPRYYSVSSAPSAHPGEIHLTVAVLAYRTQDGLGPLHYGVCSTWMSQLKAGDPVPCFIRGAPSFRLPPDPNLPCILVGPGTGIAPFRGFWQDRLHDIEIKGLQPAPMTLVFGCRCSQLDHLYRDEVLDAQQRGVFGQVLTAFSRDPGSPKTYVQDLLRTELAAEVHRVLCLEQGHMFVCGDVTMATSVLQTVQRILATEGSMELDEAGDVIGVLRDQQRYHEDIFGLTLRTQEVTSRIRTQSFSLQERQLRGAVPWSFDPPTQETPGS
Description: as §1, §2

[4] = biological target: T4, nNOS (Rattus norvegicus, UniProt P29476); assay: Inhibition of nNOS in rat cortical slices (14C-arginine to 14C-citrulline); assay type: cell-based
T4 construct: rat cerebral cortex slices; from tissue; host or cells: rat cerebral cortex slices (McIlwain-chopped)
T4 sequence (P29476 whole entry): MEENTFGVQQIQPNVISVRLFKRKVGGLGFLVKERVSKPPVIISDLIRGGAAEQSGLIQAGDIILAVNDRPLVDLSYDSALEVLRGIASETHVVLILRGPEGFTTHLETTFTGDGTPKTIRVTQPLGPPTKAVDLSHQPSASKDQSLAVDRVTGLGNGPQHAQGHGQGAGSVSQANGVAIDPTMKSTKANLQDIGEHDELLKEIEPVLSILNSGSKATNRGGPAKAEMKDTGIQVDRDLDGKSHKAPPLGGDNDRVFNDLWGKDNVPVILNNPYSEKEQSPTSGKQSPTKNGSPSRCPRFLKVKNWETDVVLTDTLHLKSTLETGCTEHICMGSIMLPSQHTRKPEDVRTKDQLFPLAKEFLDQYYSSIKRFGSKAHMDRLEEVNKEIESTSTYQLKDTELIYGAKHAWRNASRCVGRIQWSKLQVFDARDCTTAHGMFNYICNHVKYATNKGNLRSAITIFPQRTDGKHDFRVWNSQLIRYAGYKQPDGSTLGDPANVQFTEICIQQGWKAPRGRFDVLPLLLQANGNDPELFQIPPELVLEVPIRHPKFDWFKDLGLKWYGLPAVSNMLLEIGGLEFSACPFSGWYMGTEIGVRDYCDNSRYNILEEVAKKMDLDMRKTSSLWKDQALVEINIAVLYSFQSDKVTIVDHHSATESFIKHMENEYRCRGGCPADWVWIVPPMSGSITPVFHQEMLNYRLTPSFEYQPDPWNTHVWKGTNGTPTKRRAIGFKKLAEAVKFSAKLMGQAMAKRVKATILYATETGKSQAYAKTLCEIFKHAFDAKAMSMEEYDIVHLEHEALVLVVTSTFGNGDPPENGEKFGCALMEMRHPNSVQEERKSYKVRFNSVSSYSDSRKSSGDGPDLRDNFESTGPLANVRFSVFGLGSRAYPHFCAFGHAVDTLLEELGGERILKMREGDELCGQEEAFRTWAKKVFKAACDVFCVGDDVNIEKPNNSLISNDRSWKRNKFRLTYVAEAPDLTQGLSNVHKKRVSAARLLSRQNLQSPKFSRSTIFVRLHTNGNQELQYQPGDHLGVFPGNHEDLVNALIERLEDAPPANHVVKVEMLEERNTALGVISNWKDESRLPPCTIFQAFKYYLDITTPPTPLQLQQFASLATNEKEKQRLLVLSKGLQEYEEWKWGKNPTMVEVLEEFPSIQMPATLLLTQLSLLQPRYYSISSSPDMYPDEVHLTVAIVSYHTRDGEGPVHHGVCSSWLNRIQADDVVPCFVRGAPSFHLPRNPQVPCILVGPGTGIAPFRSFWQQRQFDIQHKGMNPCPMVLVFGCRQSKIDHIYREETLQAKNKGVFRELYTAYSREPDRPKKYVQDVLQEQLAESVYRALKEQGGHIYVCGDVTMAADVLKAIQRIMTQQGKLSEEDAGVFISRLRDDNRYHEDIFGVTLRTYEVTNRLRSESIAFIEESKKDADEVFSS
Description: 3. Inhibition of nNOS in Rat Cortical Slices
The effects of compounds on nNOS in rat brain slices was determined as described in Furfine et al (1994) J. Biol. Chem. 269, 26677-26683 and Lizasoain et al (1995) J. Neurochem. 64, 636-642. KCl (54 mM)—stimulated NO synthesis was measured by the conversion of 14C-arginine to 14C-citrulline over a 2 h period at 37° C. in Mcllwain—chopped (0.2 mm ×0.2 mm) rat cerebral cortex slices, following a 1 h preincubation period in the absence of compound or high KCl.

[5] = Oral bioavailability and pharmacokinetics in rats; assay type: in vivo, rat
Description: 4. Method for Determining the Oral Bioavailability of iNOS Inhibitor Compounds
Rats (3 animals per time point) were dosed intravenously (10 mg/kg) and orally (50 mg/kg) with test compound in an aqueous solution. Blood samples were taken at time intervals after administration and plasma prepared by centrifugation. Samples were stored at −20° C. until analysis.
Plasma (50 μl) was de-proteinated and compound derivatised with a quaternary ammonium reagent. Samples were then injected onto an HPLC system and compound concentration determined using mass spectrometric detection.
The plasma concentrations obtained by the above method were entered into a pharmacokinetic software package (PKCAL v 1.2s) and the data were fitted using a non-compartmental method. The oral bioavailability of the compounds was determined by comparing the Area Under the Curve (AUC) values calculated by the software for the oral profile with the AUC for the intravenous profile. The half-lives were obtained by fitting the terminal phase time points of the intravenous profile.

T1 sequence (P35228 whole entry): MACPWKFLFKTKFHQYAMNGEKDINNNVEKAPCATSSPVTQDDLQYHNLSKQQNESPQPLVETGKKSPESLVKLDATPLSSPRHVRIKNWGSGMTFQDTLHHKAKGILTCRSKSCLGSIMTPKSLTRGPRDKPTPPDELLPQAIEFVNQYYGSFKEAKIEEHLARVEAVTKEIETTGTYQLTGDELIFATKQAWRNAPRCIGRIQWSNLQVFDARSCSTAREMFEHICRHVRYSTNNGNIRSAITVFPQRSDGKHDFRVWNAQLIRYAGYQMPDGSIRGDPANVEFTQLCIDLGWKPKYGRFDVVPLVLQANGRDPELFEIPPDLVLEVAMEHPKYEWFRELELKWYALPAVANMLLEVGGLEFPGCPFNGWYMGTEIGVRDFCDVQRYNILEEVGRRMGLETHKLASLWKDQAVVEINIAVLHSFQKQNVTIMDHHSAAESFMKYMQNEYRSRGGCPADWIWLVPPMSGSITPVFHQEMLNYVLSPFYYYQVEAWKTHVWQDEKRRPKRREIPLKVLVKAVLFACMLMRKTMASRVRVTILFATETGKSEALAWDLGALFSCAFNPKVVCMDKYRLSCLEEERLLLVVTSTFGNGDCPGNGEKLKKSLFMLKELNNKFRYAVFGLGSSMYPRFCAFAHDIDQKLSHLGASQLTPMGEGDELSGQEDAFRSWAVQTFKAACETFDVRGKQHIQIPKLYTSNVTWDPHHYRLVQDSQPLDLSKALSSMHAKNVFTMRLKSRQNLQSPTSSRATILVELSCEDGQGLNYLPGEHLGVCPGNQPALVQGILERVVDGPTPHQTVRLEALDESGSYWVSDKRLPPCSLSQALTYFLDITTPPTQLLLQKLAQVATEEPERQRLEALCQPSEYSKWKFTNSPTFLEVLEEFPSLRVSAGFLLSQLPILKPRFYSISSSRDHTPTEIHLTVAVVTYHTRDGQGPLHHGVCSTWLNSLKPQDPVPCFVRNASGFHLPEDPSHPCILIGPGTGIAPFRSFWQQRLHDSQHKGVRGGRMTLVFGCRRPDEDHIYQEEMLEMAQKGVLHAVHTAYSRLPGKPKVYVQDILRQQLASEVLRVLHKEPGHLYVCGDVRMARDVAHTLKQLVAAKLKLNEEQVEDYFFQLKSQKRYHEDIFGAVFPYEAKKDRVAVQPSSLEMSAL

## S-[(R)-2-(1-Iminoethylamino)propyl]-L-cysteine Dihydrochloride [Example 1]
[1]
  IC50: 2 µM
[2]
  selectivity iNOS vs eNOS: >75
[2]; endothelium-denuded, LPS 0.1 μg/ml 6 h, phenylephrine approx. ED90
  IC50: 0.26 µM
[3]
  IC50: > 20 µM
[4]; rat cerebral cortex slices, KCl (54 mM)-stimulated NO synthesis, 2 h, 37° C.
  IC50: > 80 µM
[4]; rat tissue assays
  selectivity for iNOS versus nNOS: > 300 fold
[5]; intravenous 10 mg/kg, terminal phase
  half-life: 2 to 4 h
[5]; oral 50 mg/kg vs intravenous 10 mg/kg, AUC comparison
  oral bioavailability: > 90%

## S-[(S)-2-(1-Iminoethylamino)propyl]-D-cysteine Dihydrochloride [Example 3]
[1]
  IC50: 6.6 µM

## S-[(R)-2-(1-Iminoethylamino)propyl]-D-cysteine Dihydrochloride [Example 4]
[1]
  IC50: 48 µM

## S-[(S)-2-(1-Iminoethylamino)propyl]-L-cysteine Dihydrochloride [Example 2]
[1]
  IC50: 39 µM

## S-[(R/S)-2-(1-Iminoethylamino, 2-Cyclopropyl)ethyl]-L-cysteine Dihydrochloride [Example 7]
[1]
  IC50: 6.2 µM
